# Measurements as given in patent US20230321086A1, “METHODS AND MATERIALS FOR INHIBITING NICOTINAMIDE PHOSPHORIBOSYLTRANSFERASE ACTIVITY” (Universiy of Pittsburgh - Of the Commonwealth System of …, priority 2020, published 2023).
# What was measured:
# NAMPT = NAMPT (Homo sapiens, UniProt P43490); assay: Assay for in vitro NAMPT activity via NMN assessment; format: biochemical; conditions: read-out: A: NAMPT enzyme inhibitory activity, IC50
# Procedure: The following were added to a well: 20 μL 2× test compound in Basic Buffer (0.02% BSA, 2 mM DTT, 12 mM MgCl2, 50 mM Tris pH7.5); 10 μL 8 μg/mL NAMPT, and 200 μM PRPP working solution (or PRPP working solution to background wells). 10 μL 100 μM NAM working solution was added to start the reaction. The plate was sealed and incubated for 45 minutes at 37° C. After incubation, 10 μL 20% acetophenone in DMSO, 10 μL 2N KOH, and 20 μL 88% formic acid were added. The plate was sealed and incubated for 30 minutes at 37° C. After incubation, fluorescence at Ex/Em 387/441 was read.
# In each table header, A: NAMPT enzyme inhibitory activity, IC50 (μM); B: Cellular NAD inhibitory activity, IC50 (μM); and C: change in NAD levels in response to test compound, shown as % of NAD activity in the absence of test compound. […] A percentage of 100 percent would indicate no increase or decrease in NAD levels as compared to that measured for untreated control cells, while a percentage of 50 percent would indicate a decrease in NAD levels of 50 percent as compared to that measured for untreated control cells.
# A431 cells = assay: Assay for total NADH and NAD+ measurements in cells; format: cell-based; conditions: Homo sapiens, A-431, read-out: B: Cellular NAD inhibitory activity, IC50
# Method in brief: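 Cells (2,000/well) treated with compounds overnight, washed with PBS containing 1 mM CaCl2 and MgCl2, lysed with 0.4% DTAB in phosphate buffer pH 8.0. Reaction mix added and fluorescence (Ex/Em 530/585) followed over 8 cycles every 92 seconds; NAD given as % of untreated control.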
# Chain of NAMPT (P43490 whole entry, species assumed): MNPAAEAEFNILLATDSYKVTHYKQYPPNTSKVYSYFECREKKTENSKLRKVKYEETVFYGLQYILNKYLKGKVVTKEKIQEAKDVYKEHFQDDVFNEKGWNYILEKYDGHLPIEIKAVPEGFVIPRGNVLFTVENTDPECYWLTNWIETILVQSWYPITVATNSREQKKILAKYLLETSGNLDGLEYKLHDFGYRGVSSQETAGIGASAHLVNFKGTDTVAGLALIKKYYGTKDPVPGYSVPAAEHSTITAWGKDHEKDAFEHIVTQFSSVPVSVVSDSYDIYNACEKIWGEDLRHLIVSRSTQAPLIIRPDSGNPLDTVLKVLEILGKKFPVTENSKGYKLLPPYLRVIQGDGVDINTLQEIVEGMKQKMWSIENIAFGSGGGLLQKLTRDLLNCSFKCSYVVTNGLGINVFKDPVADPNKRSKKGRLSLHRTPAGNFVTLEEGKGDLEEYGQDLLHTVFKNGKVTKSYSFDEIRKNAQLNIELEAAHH
SMILES,IC50 (NAMPT) [µM],IC50 (A431 cells) [nM]
O=C(NCc1cccnc1)c1ccc2nc(-c3ccccc3)c(-c3ccccc3)nc2c1 [BC18405],< 1,< 1000
O=C(NCCc1cccnc1)c1cnc2nc(-c3ccc(F)cc3)c(-c3ccc(F)cc3)nc2c1 [BC20205],< 1,< 1000
O=C(NCc1cccnc1)Nc1cnc2nc(-c3ccc(F)cc3)c(-c3ccc(F)cc3)nc2c1 [BC20213],< 1,< 1000
O=C(NCCc1cccnc1)Nc1ccc2nc(-c3ccc(F)cc3)c(-c3ccc(F)cc3)nc2c1 [BC20216],< 1,< 1000
O=C(Nc1cccnc1)Nc1ccc2nc(-c3ccc(F)cc3)c(-c3ccc(F)cc3)nc2c1 [BC20224],< 1,< 1000
O=C(NCc1ccc2nc(-c3ccc(F)cc3)c(-c3ccc(F)cc3)nc2c1)Nc1cccnc1 [BC20235],< 1,< 1000
CS(=O)(=O)N1CCCC(NC(=O)NCc2ccc3nc(-c4ccc(F)cc4)c(-c4ccc(F)cc4)nc3c2)C1 (stereo not shown) [BC20253],≥ 25,
O=C(Nc1cccnc1)Nc1cnc2nc(-c3ccc(F)cc3)c(-c3ccc(F)cc3)nc2c1 [BC20254],< 1,< 1000
O=C(Nc1cnc2nc(-c3ccc(F)cc3)c(-c3ccc(F)cc3)nc2c1)NC1CCCNC1 (stereo not shown) [BC20255],≥ 25,
CS(=O)(=O)N1CCCC(NC(=O)Nc2cnc3nc(-c4ccc(F)cc4)c(-c4ccc(F)cc4)nc3c2)C1 (stereo not shown) [BC20256],1 to 25,
CN1CCN(C(=O)c2ccc3nc(-c4cccc(NS(C)(=O)=O)c4)c(-c4cccc(NS(C)(=O)=O)c4)nc3c2)CC1 [BC20258],≥ 25,
CN1CCN(C(=O)c2ccc3nc(-c4cccc(CNS(C)(=O)=O)c4)c(-c4cccc(CNS(C)(=O)=O)c4)nc3c2)CC1 [BC20259],≥ 25,
CN(C)Cc1cccc(-c2nc3ccc(C(=O)N4CCN(C)CC4)cc3nc2-c2cccc(CN(C)C)c2)c1 [BC20260],≥ 25,
C#CCNC(=O)c1ccc2nc(-c3cccc(CNS(C)(=O)=O)c3)c(-c3cccc(CNS(C)(=O)=O)c3)nc2c1 [BC20261],≥ 25,
CN1CCN(C(=O)c2ccc3nc(-c4ccc(F)cc4)c(-c4cccc(N(C)C)c4)nc3c2)CC1 [BC20262],≥ 25,
CN(C)CC(=O)NCc1cccc(-c2nc3cc(C(=O)N4CCN(C)CC4)ccc3nc2-c2ccc(F)cc2)c1 [BC20263],≥ 25,
COCC(=O)NCc1cccc(-c2nc3cc(C(=O)N4CCN(C)CC4)ccc3nc2-c2ccc(F)cc2)c1 [BC20264],≥ 25,
CN1CCN(C(=O)c2ccc3nc(-c4ccc(F)cc4)c(-c4cccc(CN5CCCC5)c4)nc3c2)CC1 [BC20265],≥ 25,
C#CCNC(=O)c1ccc2nc(-c3cccc(NC(=O)CN(C)C)c3)c(-c3ccc(F)cc3)nc2c1 [BC20266],≥ 25,
O=C(NCc1ccc2nc(-c3ccc(F)cc3)c(-c3ccc(F)cc3)nc2c1)c1cccnc1 [BC20267],1 to 25,
O=C(NCCc1cccnc1)Nc1cnc2nc(-c3ccc(F)cc3)c(-c3ccc(F)cc3)nc2c1 [BC20268],< 1,< 1000

SMILES,IC50 (NAMPT) [µM],IC50 (A431 cells) [nM]
CN1CCCC(NC(=O)Nc2cnc3nc(-c4ccc(F)cc4)c(-c4ccc(F)cc4)nc3c2)C1 (stereo not shown) [BC20269],≥ 25,
CS(=O)(=O)N1CCC[C@H](CNC(=O)c2ccc3nc(-c4ccc(F)cc4)c(-c4ccc(F)cc4)nc3c2)C1 [BC20270],≥ 25,
CC(=O)N1CCC[C@H](CNC(=O)c2ccc3nc(-c4ccc(F)cc4)c(-c4ccc(F)cc4)nc3c2)C1 [BC20271],≥ 25,
CC(=O)NCc1cccc(-c2nc3ccc(C(=O)N4CCN(C)CC4)cc3nc2-c2cccc(CNC(C)=O)c2)c1 [BC20272],≥ 25,
COCC(=O)NCc1cccc(-c2nc3ccc(C(=O)N4CCN(C)CC4)cc3nc2-c2cccc(CNC(=O)COC)c2)c1 [BC20273],≥ 25,
C#CCNC(=O)c1ccc2nc(-c3cccc(CNC(C)=O)c3)c(-c3cccc(CNC(C)=O)c3)nc2c1 [BC20274],≥ 25,
C#CCNC(=O)c1ccc2nc(-c3cccc(CNC(=O)COC)c3)c(-c3cccc(CNC(=O)COC)c3)nc2c1 [BC20275],≥ 25,
C#CCNC(=O)c1ccc2nc(-c3ccc(F)cc3)c(-c3cccc(CNC(=O)COC)c3)nc2c1 [BC20276],≥ 25,
O=C1N(Cc2cccnc2)CCN1c1ccc2nc(-c3ccc(F)cc3)c(-c3ccc(F)cc3)nc2c1 [BC20277],1 to 25,
O=C(Cc1cccnc1)NCc1ccc2nc(-c3ccc(F)cc3)c(-c3ccc(F)cc3)nc2c1 [BC20278],1 to 25,
O=C(NC[C@H]1CCCNC1)c1ccc2nc(-c3ccc(F)cc3)c(-c3ccc(F)cc3)nc2c1 [BC20279],≥ 25,
CN1CCC[C@H](CNC(=O)c2ccc3nc(-c4ccc(F)cc4)c(-c4ccc(F)cc4)nc3c2)C1 [BC20280],1 to 25,
COCC(=O)N1CCC[C@H](CNC(=O)c2ccc3nc(-c4ccc(F)cc4)c(-c4ccc(F)cc4)nc3c2)C1 [BC20281],≥ 25,
COCCNC(=O)N1CCC[C@H](CNC(=O)c2ccc3nc(-c4ccc(F)cc4)c(-c4ccc(F)cc4)nc3c2)C1 [BC20282],≥ 25,
CCCC(=O)N1CCC[C@H](CNC(=O)c2ccc3nc(-c4ccc(F)cc4)c(-c4ccc(F)cc4)nc3c2)C1 [BC20283],≥ 25,
CS(=O)(=O)N1CCC[C@H](CNC(=O)NCc2ccc3nc(-c4ccc(F)cc4)c(-c4ccc(F)cc4)nc3c2)C1 [BC20284],1 to 25,
O=C(NCc1ccc2nc(-c3ccc(F)cc3)c(-c3ccc(F)cc3)nc2c1)NC[C@H]1CCCNC1 [BC20285],1 to 25,
CN(C)CC(=O)Nc1cccc(-c2nc3ccc(C(=O)N4CCN(C)CC4)cc3nc2-c2cccc(NC(=O)CN(C)C)c2)c1 [BC20286],≥ 25,
C#CCNC(=O)c1ccc2nc(-c3cccc(NS(C)(=O)=O)c3)c(-c3cccc(NS(C)(=O)=O)c3)nc2c1 [BC20288],≥ 25,
C#CCNC(=O)c1ccc2nc(-c3cccc(CNC(=O)CN(C)C)c3)c(-c3cccc(CNC(=O)CN(C)C)c3)nc2c1 [BC20289],≥ 25,
CN1CCN(C(=O)c2ccc3nc(-c4cccc(NS(C)(=O)=O)c4)c(-c4ccc(F)cc4)nc3c2)CC1 [BC20290],≥ 25,

SMILES,IC50 (NAMPT) [µM],IC50 (A431 cells) [nM]
O=C1N(Cc2cccnc2)CCN1c1cnc2nc(-c3ccc(F)cc3)c(-c3ccc(F)cc3)nc2c1 [BC20291],≥ 25,
CC(C)CC(=O)N1CCC[C@H](CNC(=O)c2ccc3nc(-c4ccc(F)cc4)c(-c4ccc(F)cc4)nc3c2)C1 [BC20292],≥ 25,
CCCS(=O)(=O)N1CCCC(NC(=O)Nc2cnc3nc(-c4ccc(F)cc4)c(-c4ccc(F)cc4)nc3c2)C1 (stereo not shown) [BC20293],≥ 25,
CN1CCC[C@H](CNC(=O)NCc2ccc3nc(-c4ccc(F)cc4)c(-c4ccc(F)cc4)nc3c2)C1 [BC20294],≥ 25,
C#CCCC(=O)N1CCC[C@H](CNC(=O)c2ccc3nc(-c4ccc(F)cc4)c(-c4ccc(F)cc4)nc3c2)C1 [BC20295],≥ 25,
COCC(=O)NCc1cccc(-c2nc3ccc(C(=O)N4CCN(C)CC4)cc3nc2-c2ccc(F)cc2)c1 [BC20296],≥ 25,
C#CCNC(=O)Nc1cnc2nc(-c3ccc(F)cc3)c(-c3ccc(F)cc3)nc2c1 [BC20297],≥ 25,
COCCNC(=O)Nc1cnc2nc(-c3ccc(F)cc3)c(-c3ccc(F)cc3)nc2c1 [BC20298],≥ 25,
CC(=O)N1CCC[C@H](CNC(=O)Nc2ccc3nc(-c4ccc(F)cc4)c(-c4ccc(F)cc4)nc3c2)C1 [BC20299],1 to 25,
CS(=O)(=O)N1CCCC(CNC(=O)Nc2ccc3nc(-c4ccc(F)cc4)c(-c4ccc(F)cc4)nc3c2)C1 (stereo not shown) [BC20300],1 to 25,
CC(=O)N1CCCC(CNC(=O)NCc2ccc3nc(-c4ccc(F)cc4)c(-c4ccc(F)cc4)nc3c2)C1 (stereo not shown) [BC20301],1 to 25,
Fc1ccc(-c2nc3cc4[nH]c(=S)n(CCc5cccnc5)c4nc3nc2-c2ccc(F)cc2)cc1 [BC20305],≥ 25,
CC(=O)NCc1cccc(-c2nc3ccc(C(=O)N4CCN(C)CC4)cc3nc2-c2ccc(F)cc2)c1 [BC20306],≥ 25,
CN(C)Cc1cccc(-c2nc3ccc(C(=O)N4CCN(C)CC4)cc3nc2-c2ccc(F)cc2)c1 [BC20307],≥ 25,
Fc1ccc(-c2nc3cc(NC(=S)NCCc4cccnc4)cnc3nc2-c2ccc(F)cc2)cc1 [BC20309],< 1,< 1000
O=C(NCCc1cccnc1)Nc1ccc2nc(-c3ccc(F)cc3)c(-c3ccc(F)cc3)nc2n1 [BC20310],< 1,
O=C(NCCc1cccnc1)Nc1cnc2nc(-c3ccc(Cl)cc3)c(-c3ccc(Cl)cc3)nc2c1 [BC20311],< 1,< 1000
CN(C)CCNC(=O)Nc1cnc2nc(-c3ccc(F)cc3)c(-c3ccc(F)cc3)nc2c1 [BC20312],≥ 25,
O=C(NCCc1cccnn1)Nc1cnc2nc(-c3ccc(F)cc3)c(-c3ccc(F)cc3)nc2c1 [BC20314],< 1,< 1000
O=C(NCCc1cncs1)Nc1cnc2nc(-c3ccc(F)cc3)c(-c3ccc(F)cc3)nc2c1 [BC20315],< 1,< 1000
Nc1ccc(CNC(=O)Nc2cnc3nc(-c4ccc(F)cc4)c(-c4ccc(F)cc4)nc3c2)cn1 [BC20316],< 1,< 1000
